Assay results taken from patent US6331555A, “Treatment of platelet derived growth factor related disorders such as cancers” (priority 1999, dated 2001).
Like-named read-outs stand apart in the source and are kept apart here.

Columns and labels:
C6 cells = assay: C6 SRB growth assay; type: cell-based, rat
C6 glioma cells = assay: C6 glioma SC xenograft in mice; type: in vivo; conditions: for inhibition in vivo at 15 mg/kg: Rattus norvegicus, C6 glioma, sc, read-out: C6 in vivo EFFICACY
In short: (§1)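 C6 (3×10^6) or SKOV-3 (1×10^7) cells in PBS were implanted into the hind flank of female Balb/c nu/nu mice on Day 0; U87MG and U118MG went into athymic mice. Tumors were caliper-measured over 3–6 weeks, with volume as length×width×height. P values came from Student's t-test.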

PDGFR = assay: Receptor tyrosine kinase inhibition, PDGFR; type: cell-based; conditions: for IC50: W = done in Western assay, read-out: PDGFR IC50 (W)
In short: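 Serum-starved cells treated with test compound for 2 hr at 37° C, then receptor phosphotyrosine measured by ELISA with anti-phosphotyrosine antibody and goat anti-rabbit IgG. Western blots used 7 min ligand stimulation at room temperature, vanadate-containing lysis and anti-phosphotyrosine immunodetection with ECL.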

U1242 cells [1] = assay: Cytotoxicity in U1242 cells, LDH; type: cell-based; conditions: Homo sapiens, read-out: CYTOXICITY LDH U1242 LD50
Procedure: (§2) The cytotoxicity of each drug was also determined. The cells were plated as described above. Following incubation with drug, cell survival was measured by an MTT assay as described by Mossman J. Immunol. Methods 65:55-63 (1983), or by measuring the amount of LDH released (Korzeniewski and Callewaert, J. Immunol. Methods 64:313 (1983); Decker and Lohmann-Matthes, J. Immunol. Methods 115:61 (1988) .

[2] = C6 glioma SC xenograft in mice; type: in vivo; conditions: rat, in vivo, ip; for mortality at 336 h: 15 mg/kg
In short: as §1

PDGF-R (U1242) = target: T1, PDGF-R (U1242) (Homo sapiens, UniProt P09619); assay: U1242 kinase (PDGF-R activity); type: cell-based
T1 construct: U1242 (PDGF-β receptor); host or cells: U1242 MG glioma cells
T1 sequence (P09619 33-1106): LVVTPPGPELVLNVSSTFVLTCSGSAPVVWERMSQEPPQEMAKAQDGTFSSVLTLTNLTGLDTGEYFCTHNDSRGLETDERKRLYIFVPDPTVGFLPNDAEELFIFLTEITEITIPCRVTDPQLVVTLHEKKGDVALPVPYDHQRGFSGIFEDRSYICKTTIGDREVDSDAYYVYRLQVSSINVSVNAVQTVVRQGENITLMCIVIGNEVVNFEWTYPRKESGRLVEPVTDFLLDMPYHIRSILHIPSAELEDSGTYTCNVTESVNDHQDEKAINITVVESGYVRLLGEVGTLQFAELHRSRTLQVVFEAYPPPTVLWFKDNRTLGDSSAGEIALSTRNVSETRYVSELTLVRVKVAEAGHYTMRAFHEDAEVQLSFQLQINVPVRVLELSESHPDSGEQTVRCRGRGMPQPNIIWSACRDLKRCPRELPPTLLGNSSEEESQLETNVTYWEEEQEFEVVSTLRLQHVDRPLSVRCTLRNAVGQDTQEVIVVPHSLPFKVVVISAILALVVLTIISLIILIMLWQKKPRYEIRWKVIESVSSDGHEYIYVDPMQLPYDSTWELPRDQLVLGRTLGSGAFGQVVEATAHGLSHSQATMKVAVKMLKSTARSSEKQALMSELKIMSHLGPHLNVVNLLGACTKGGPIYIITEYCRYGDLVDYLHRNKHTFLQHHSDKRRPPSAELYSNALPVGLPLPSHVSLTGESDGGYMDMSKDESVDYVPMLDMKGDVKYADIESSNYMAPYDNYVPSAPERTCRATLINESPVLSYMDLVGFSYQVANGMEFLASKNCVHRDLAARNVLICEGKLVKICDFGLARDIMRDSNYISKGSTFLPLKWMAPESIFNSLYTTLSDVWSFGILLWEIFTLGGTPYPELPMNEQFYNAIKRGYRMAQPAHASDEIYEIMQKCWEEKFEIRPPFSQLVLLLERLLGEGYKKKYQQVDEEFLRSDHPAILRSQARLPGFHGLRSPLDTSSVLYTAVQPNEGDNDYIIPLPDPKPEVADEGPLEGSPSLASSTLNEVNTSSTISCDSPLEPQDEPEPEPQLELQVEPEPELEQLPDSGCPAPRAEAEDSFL
In short: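 For ELISA, cells were held overnight in 0.5% serum, then treated with compound for 2 h at 37 °C in serum-free medium. Lysate phosphotyrosine was detected with polyclonal anti-phosphotyrosine antibody. In western blots, cells were stimulated with ligand for 7 min at room temperature and probed with anti-phosphotyrosine (1:3000).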

U1242 cells [3] = assay: Cytotoxicity in U1242 cells, MTT; type: cell-based, human; conditions: for LD50 compared to A10: MTT or LDH; for CC50: Homo sapiens, read-out: CYTOXICITY MTT U1242 LD50, heading: CYTOXICITY MTT U1242 LD50
Procedure: as §2

[4] = Rattus norvegicus, C6; read-out: C6 SRB IC50
[5] = heading: CYTOXICITY LDH U1242 LD50
[6] = W = done in Western assay, read-out: U1242 KINASE IC50 (W)

In the case of `Cc1oncc1C(=O)Nc1ccc(C(F)(F)F)cc1` [Compound A10, 5-methylisoxazole-4 carboxylic acid-(4-trifluromethyl)-anilide], the IC50 (C6 cells; Rattus norvegicus, C6; PDGF-R expression ++; read-out: SRB) is reported as 0.3 µM, the “inhibition in tumor growth” value (C6 glioma cells; 15 mg/kg/day (DMSO), after 20 days) is reported as “greater than 90%” and the “% Inhibition” value (C6 glioma cells; 15 mg/kg/day, DMSO) is reported as 90%. For the same compound, the “% Inhibition” value (C6 glioma cells; 15 mg/kg/day, PBTE) was 92%, the “% Inhibition” value (C6 glioma cells; 20 mg/kg (DMSO), 2 days) was 77% and the “% Inhibition” value (C6 glioma cells; 20 mg/kg (DMSO), 4 days) was 60%. For the same compound, the “% Inhibition” value (C6 glioma cells; 20 mg/kg (PBTE:D5W), daily) was > 95%, the “% Inhibition” value (C6 glioma cells; 20 mg/kg, PBTE:D5W) was > 95% and the “% Inhibition” value (C6 glioma cells; 20 mg/kg/day, DMSO) was 95%. For the same compound, the “% Inhibition” value (C6 glioma cells; 20 mg/kg/day, PBTE) was > 95%, the “% Inhibition” value (C6 glioma cells; 30 mg/kg (DMSO), 2 days) was 91% and the “% Inhibition” value (C6 glioma cells; 30 mg/kg (DMSO), 3 days) was 87%. The “% Inhibition” value (C6 glioma cells; 40 mg/kg (PBTE), 2 days) was > 95%, the “% Inhibition” value (C6 glioma cells; 40 mg/kg/2 days, PBTE) was > 95% and the “% Inhibition” value (C6 glioma cells; 60 mg/kg (PBTE), weekly) was 51%. The “% Inhibition” value (C6 glioma cells; 100 mg/kg (PBTE), weekly) was 63%, the efficacy of formulations (C6 glioma cells; PBTE, PBTE:D5W and DMSO) was “equivalent in vivo inhibition of tumor growth” and the “% Inhibition” value (C6 glioma cells; nu/nu, 20 mg/kg/day, day 21) was > 95%. For the same compound, the “% Inhibition” value (C6 glioma cells; nu/nu†, 20 mg/kg/day, day 18, delayed start) was 84% and the “In Vivo inhibition” value (C6 glioma cells; xenografted athymic mice) was 95%.
For `Cc1cc2nc(-c3ccccc3)c(=O)[nH]c2cc1C` [Compound G18], the IC50 (PDGFR) was 10 µM and the CC50 (U1242 cells [1]) was > 100 µM.
With `COc1cc2ncc(-c3ccccc3)nc2cc1OC` [Compound G14] the “PDGF-R phosphorylation” value (PDGFR) was “inhibit PDGF-R phosphorylation”, the IC50 (PDGFR) was 0.8 µM and the IC50 (C6 cells; [4]) was > 50 µM. For the same compound, the CC50 (U1242 cells [1]; [5]) was > 100 µM, the inhibition in vivo at 15 mg/kg (C6 glioma cells; at 15 mg/kg) was 36% and the mortality at 336 h [2] was 0%. For the same compound, the IC50 (PDGF-R (U1242); [6]) was 0.8 µM and the “LD50 compared to A10” value (U1242 cells [3]) was “LD50 less than A10”.
In the case of `O=c1c2ccccc2nc(C=Cc2ccc(O)c(O)c2)n1CCO` [Compound F10], the IC50 (PDGFR) is reported as 5 µM, the IC50 (C6 cells; [4]) is reported as > 12.5 µM and the IC50 (PDGF-R (U1242); [6]) is reported as 45 µM.
In the case of `Cc1cc2ncc(-c3ccccc3)nc2cc1C` [Compound G13], the “PDGF-R phosphorylation” value (PDGFR) is reported as “inhibit PDGF-R phosphorylation”, the IC50 (C6 cells; Rattus norvegicus, C6, read-out: C6 SRB IC50) is reported as > 50 µM and the CC50 (U1242 cells [1]; [5]) is reported as > 100 µM. For the same compound, the inhibition in vivo at 15 mg/kg (C6 glioma cells) was 12%, the mortality at 336 h [2] was 0% and the CC50 (U1242 cells [3]) was 100 µM. The “LD50 compared to A10” value (U1242 cells [3]) was “LD50 less than A10”.
With `CN(C)CCCn1cc(C=C(C#N)c2[nH]nc(N)c2C#N)c2ccccc21` [Compound D15] the IC50 (PDGFR) was 19 µM and the CC50 (U1242 cells [3]) was 80 µM.
In the case of `N#CC(=Cc1c[nH]c2ccccc12)c1[nH]nc(N)c1C#N` [Compound D14], the “PDGF-R phosphorylation” value (PDGFR) is reported as “inhibit PDGF-R phosphorylation” and the CC50 (U1242 cells [1]) is reported as > 100 µM.
`N#CC(=Cc1c[nH]c2ccccc12)C(N)=S` [Compound D11] gave an IC50 (PDGFR) of 8 µM and a CC50 (U1242 cells [3]) of 90 µM.
With `c1ccc(-c2cnc3cc4ccccc4cc3n2)cc1` [Compound G22] the IC50 (C6 cells; [4]) was > 6 µM, the CC50 (U1242 cells [1]) was > 100 µM and the “C6 in vivo EFFICACY” value (C6 glioma cells; at 20 mg/kg) was “no effect”. For the same compound, the mortality ([2]; 20 mg/kg) was 0%, the IC50 (PDGF-R (U1242); [6]) was 0.9 µM and the IC50 (PDGF-R (U1242); read-out: U1242 KINASE IC50) was 14 µM.
